Source: patent US11192869B2, “CFTR regulators and methods of use thereof” (THE REGENTS OF THE UNIVERSITY OF CALIFORNIA, priority 2015, dated 2021)
“Also recorded” adds a separate entry of the source.

Columns and labels:
[1] = tested on: mid-jejunal loops of cystic fibrosis mice; test: In vivo intestinal fluid absorption, closed mid-jejunal loops of CF mice; set-up: species or system mouse; settings: 30 min
Protocol: In vivo intestinal secretion and absorption. Mice (wildtype or CF) were given access to 5% dextrose water but not solid food for 24 h before experiments. Mice were anesthetized with isoflurane and body temperature was maintained during surgery at 36-38° C. using a heating pad. A small abdominal incision was made to expose the small intestine, and closed mid-jejunal loops (length 2-3 cm) were isolated by sutures. Loops were injected with 100 μL vehicle alone or […] CFTRact-J027 in vehicle. The abdominal incision was closed with sutures, and mice were allowed to recover from anesthesia. Intestinal loops were removed at 90 min and loop length and weight were measured to quantify fluid secretion. Intestinal absorption was measured in CF mice (to prevent secretion) as described above, except that the loops were removed at 0 or 30 min. Absorption was calculated as 1-(loop weight at 0 min−loop weight at 30 min)/loop weight at 0 min.
In vivo intestinal secretion and absorption. […] Intestinal loops were removed at 90 min and loop length and weight were measured to quantify fluid secretion. Intestinal absorption was measured in CF mice (to prevent secretion) as described above, except that the loops were removed at 0 or 30 min. Absorption was calculated as 1-(loop weight at 0 min−loop weight at 30 min)/loop weight at 0 min.

[2] = Ocular toxicity after chronic topical dosing (slit-lamp, lissamine green); assay type: in vivo; settings: chronically treated mice
Protocol: Lissamine green staining. To assess corneal epithelial disruption, 5 μL of lissamine green (LG) dye (1%) was applied to the ocular surface of isofluorane-anesthetized mice. Photographs of the eye were taken using a Nikon Digital camera adapted to an Olympus Zoom Stereo Microscope (Olympus, Center Valley, Pa., USA). Each corneal quadrant was scored on a 3-point scale by one blinded, trained observer, with the extent of staining in each quadrant classified as: 0, no staining; 1, sporadic (involving <25% of the total surface) staining; grade 2, diffuse punctate staining (25-75%); and grade 3, coalesced punctate staining (>75%). The total grade is reported as the sum of scores from all four quadrants, ranging from 0 to 12.

[3] = In vitro metabolic stability; assay type: in vitro ADME, mouse
Protocol: In vitro metabolic stability. CFTRact-J027 (5 μM) was incubated for specified times at 37° C. with mouse liver microsomes (1 mg protein/ml; Sigma-Aldrich) in potassium phosphate buffer (100 mM) containing 1 mM NADPH, as described. The mixture was then chilled on ice, and 0.5 ml of ice-cold ethyl acetate was added. Samples were centrifuged for 15 min at 3000 rpm, the supernatant evaporated to dryness, and the residue was dissolved in 100 μL mobile phase (acetonitrile:water, 3:1) for LC/MS and assayed as described above.

[4] = tested on: loperamide-induced mouse model of constipation; test: Loperamide-induced mouse model of constipation
[5] = tested on: tear secretion; test: Tear secretion (phenol red thread); assay type: in vivo, mouse; settings: single topical dose, for (at least) four hours
[6] = tested on: FRT cells; test: Cytotoxicity, Alamar Blue assay; assay type: cell-based, rat; settings: 20 μM
Protocol: Chronic administration and toxicity studies.
(§1) cAMP and cytotoxicity assays. Intracellular cAMP activity was measured using a GloSensor luminescence assay (Promega Corp., Madison, Wis., USA). FRT cells stably transfected with the pGloSensor cAMP plasmid (Promega Corp.) were cultured in white 96-well microplates (Corning Costar) overnight. Cells were then washed three times with PBS and incubated with 5 μM test compound for 10 min in the absence and presence of 100 nM forskolin.

[7] = tested on: cAMP; test: cAMP GloSensor luminescence assay in FRT cells; assay type: cell-based, rat; settings: 5 μM, 10 min
Protocol: cAMP assay. Intracellular cAMP activity was measured using a GloSensor luminescence assay (Promega Corp., Madison, Wisconson, USA). FRT null cells were stably transfected with the pGloSensor cAMP plasmid and plated onto white 96-well microplates and grown to confluence. Cells were washed three times with PBS and incubated with 5 μM CFTRact-J027 for 10 min in the absence and presence of 100 nM forskolin. cAMP was assayed according to the manufacturer's instructions.
as §1

## Nc1ccc([N+](=O)[O-])cc1-c1nc2ccccc2n(Cc2ccccc2)c1=O [CFTRact-J027, 3-(2-amino-5-nitrophenyl)-1-benzylquinoxalin-2(1H)-one]
[1]
  intestinal fluid absorption: did not affect
[2]
  LG staining, corneal or conjunctival epithelial disruption: no corneal or conjunctival epithelial disruption
  ocular toxicity by slit-lamp evaluation: no signs of ocular toxicity
[3]; 60 min
  original compound remaining: 7%
[3]; liver microsomes
  hepatic/microsomal metabolism (in words): rapid in vitro metabolism; also recorded: rapid hepatic metabolism
[3]; mouse liver microsomes, NADPH, 5 μM
  elimination half-life: ~21 min
[4]; intraperitoneal 10 mg/kg, loperamide-treated mice, 3 h
  stool weight, pellet number and water content: normalizes stool output and water content
[4]; intraperitoneal, non-loperamide-treated mice
  stool output or water content in control mice: did not affect
[4]; loperamide model, CF mice
  effect in cystic fibrosis mice lacking functional CFTR: without effect
[4]; oral 10 mg/kg for 7 days, loperamide 1 h after final dose
  efficacy after chronic administration: remained effective
[4]; oral administration (10 mg/kg, 1 h prior to loperamide), 10 mg/kg
  stool output and water content: normalized stool output and water content; also recorded: effective in normalizing stool output and water content
[5]
  increase of tear fluid secretion: approximately two-fold
[6]
  cytotoxicity: did not show cytotoxicity
[7]
  cellular cAMP elevation, compound alone: without causing elevation of cytoplasmic cAMP; also recorded: does not elevate cellular cAMP
[7]; forskolin 100 nM
  cAMP when added together with forskolin: does not further increase cAMP
